This note sets out measurements from PMC5983823, “Screening of Natural Product Derivatives Identifies Two Structurally Related Flavonoids as Potent Quorum Sensing Inhibitors against Gram-Negative Bacteria” (International Journal of Molecular Sciences, 2018).

Data set [1] has as its system C. violaceum ATCC 31532. The data set is described as follows: Violacein extraction assay (QS-mediated violacein production). It counts as cell-based, Chromobacterium violaceum. The settings on record: for inhibition at 400 µM: ATCC31532, 24 h, read-out: Inhibition-% of violacein production. On the procedure:
(§1) The initial screening of compound library was conducted using two strains of C. violaceum as model bacterium, and two assays (violacein extraction and resazurin staining) in parallel as recently optimized in [26]. For the screening assays, overnight cultures of C. violaceum were diluted in LB broth supplemented with yeast extract (LBY) (0.1% w/v, Sigma Aldrich, St. Louis, MO, USA). Culture of C. violaceum CV026 was further supplemented with 0.5 µM N-(β-ketocaproyl)-L-Homoserine lactone (3-O-C6-(L)-HSL, Cayman chemicals, Ann Arbor, MI, USA) to induce the violacein production. Bacteria (10^6 CFU/mL) was exposed to compounds (400 µM) in a total volume of 200 µL in 96-microtiter well plates (Nunc, Roskilde, Denmark), and incubated at 27 °C, with shaking at 200 rpm for 24 h. DMSO was added in untreated control wells and bacteria-free wells with only LBY were included controls. Additionally, autoinducer-free wells containing only bacteria were included in C. violaceum CV026 plates. Plates were prepared in duplicates. Quercetin dihydrate (Carl Roth GmbH, Karlsruhe, Germany) at 400 µM was used as positive control in violacein extraction assay, and azithromycin (Cayman chemicals, Ann Arbor, MI, USA) at 10 µM in viability assay. Both control compounds were prepared in DMSO. DMSO concentration was 2.5% throughout the experiments.
(§2) After incubation period of 24 h, plates were centrifuged (Allegra™ X-12R Benchtop centrifuge, Beckman Coulter Inc., Fullerton, CA, USA) at 3000 rpm for 10 min to precipitate the violacein. Supernatants were discarded from the wells by pipetting, and pellets were re-suspended in 200 μL of 96% ethanol by scraping and mixing followed by centrifugation (3000 rpm, 10 min). Thereafter, 100 μL of supernatants were transferred to sterile 96-microtiter well plates, and violacein was quantified by reading the optical density at 595 nm using Varioskan Flash. Inhibition of violacein production was expressed as inhibition percentages of the untreated biofilms (Equation (1)):Inhibition-% = [(untreated control OD595 − sample OD595)/(untreated control OD595 − media control OD595)] × 100%(1) in which untreated control = C. violaceum + DMSO, media control = LBY, and sample = C. violaceum treated with a compound. Later on, violacein extraction assay was also utilized for the determination of half inhibitory concentrations of the compounds.

The subject of data set [2] is C. violaceum CV026. The data set is described as follows: Violacein extraction assay (QS-mediated violacein production), mutant strain with exogenous autoinducer. It is filed as cell-based, Chromobacterium violaceum. The conditions noted are these: for inhibition at 400 µM: Chromobacterium violaceum, CV026, 24 h, read-out: Inhibition-% of violacein production. On the procedure:
as §1, §2

Data set [3] has as its system C. violaceum ATCC 31532. The data set is described as follows: Violacein extraction assay (QS-mediated violacein production). The settings on record: Chromobacterium violaceum. It counts as cell-based.
Data set [4] relates to human lung (HL) epithelial cells. The data set is described as follows: Cytotoxicity testing (CellTiter Glo). It is filed as cell-based. The settings on record: 200 µM, 24 h exposure, positive control. As for the experimental part: (§3) Human lung (HL) epithelial cells were grown in RPMI 1640 (Biowhittaker, Lonza, Viewers, Bornem, Belgium) supplemented with 10% inactivated fetal bovine serum (FBS), 2 mM L-glutamine and gentamycin 20 µg/mL, and mouse monocyte macrophage RAW 264.7 cells in DMEM medium supplemented with 10% FBS and 20 µg/mL gentamycin. Cells (3 × 10^5 cells/mL) were seeded into 96-microtiter well plates (Cellstar TC, Greiner Bio-One GmbH, Frickenhausen, Germany), 200 µL per well, and incubated at 37 °C in 5% CO2 24 h before exposure to the compounds. After the incubation, culture medium was discarded, the wells were washed with PBS, and the compound dilutions prepared in culture media were added as triplicates to a final volume of 200 µL. Usnic acid (200 µM, Sigma Aldrich, St. Louis, MO, USA) was included as positive control and DMSO (1%) as solvent control. Plates were incubated for additional 24 h. At the end of 24 h, media was removed, wells were washed twice with PBS and 100 µL of PBS was added. CellTiter Glo® reagent (Promega, Madison, WI, USA) was prepared according to manufacturer’s instructions, and 100 µL was added to the wells. The plates were shaken for two minutes and equilibrated at room temperature for 10 min prior to measuring the luminescence using Varioskan LUX multimode plate reader (Thermo Scientific, Vantaa, Finland). Inhibition of cell viability was calculated in relation to the untreated cells.
On the technique in general: In ATP-based viability assays light output follows the ATP content of the culture.

Data set [5] concerns mouse monocyte macrophage (RAW 264.7) cells. The data set is described as follows: Cytotoxicity testing (CellTiter Glo). The settings on record: 200 µM, 24 h exposure, positive control. It is filed as cell-based. As for the experimental part:
as §3

Where [6] appears, read: Chromobacterium violaceum, primary screening, 400 µM, 24 h, C. violaceum ATCC 31532.
[7] abbreviates: ATCC31532, 40 µM, C. violaceum ATCC 31532, mean ± SD of three independent tests, read-out: Inhibition-% of violacein production.
The mark [8] stands for this setting: ATCC31532, read-out: Inhibition-% of violacein production.

Like-named read-outs stand apart in the source and are kept apart here.

As to `COc1ccc(/C=C/C(=O)c2ccc(O)cc2C)cc1` [Compound 2372, (2E)-1-(4-hydroxy-2-methylphenyl)-3-(4-methoxyphenyl)prop-2-en-1-one], the inhibition (in general, the change of the read-out against control, counted positive when it falls) at 400 µM in data set [1] (setting [6]) was found to be 18.3%; in data set [2] it was 91.1%.
Turning to `Nc1ccn(C2OC(CO)C3OP(=O)(O)OC32)c(=O)n1` (centres unmarked) [Compound 144, 8-(4-amino-2-oxohydropyrimidinyl)-3-hydroxy-6-(hydroxymethyl)-2,4,7-trioxa-3-phosphabicyclo[3.3.0]octan-3-one], the inhibition at 400 µM in data set [1] (setting [6]) was determined as 94.7%; in data set [2] it was 97.2%. The inhibition at 40 µM in data set [3] (setting [7]) was found to be 0%.
With `CCOc1ccc2oc(=O)cc(CN3CCNCC3)c2c1` [Compound 1852, 6-ethoxy-4-(piperazinylmethyl)chromen-2-one], the values for the inhibition at 400 µM in data set [1] (setting [6]) and in data set [2] were 29.7% and 95.2%, respectively.
For `NC(=O)CC1CCCCN1` (centres unmarked) [Compound 2584, 2-(2-piperidyl)acetamide] the same measures were 20.5% and 106%.
Turning to `CC(C)COc1ccc(C(=O)N/C(=C\c2ccccc2)C(=O)NCCNC(=O)/C(=C\c2ccccc2)NC(=O)c2ccc(OCC(C)C)cc2)cc1` [Compound 2, (2E)-N-[2-((2Z)-2-{[4-(2-methylpropoxy)phenyl]carbonylamino}-3-phenylprop-2-enoylamino)ethyl]-2-{[4-(2-methylpropoxy)phenyl]carbonylamino}-3-phenylprop-2-en amide], in data set [1] (setting [6]), the inhibition at 400 µM was determined as 19%.
For `Cc1ccc2c(C)c(-c3ccc(Cl)cc3)c(=O)oc2c1` [Compound 1352], the inhibition at 400 µM in data set [1] (setting [6]) was 18.8%; in data set [2], 99.6%.
With `O=c1cc(C(Cl)(Cl)Cl)oc2ccccc12` [Compound 2712, 2-(trichloromethyl)chromen-4-one], the inhibition at 400 µM in data set [2] came to 106%.
As to `COc1cc([C@H]2OC[C@@H]3C(c4ccc(OC5OC(COC6OC(C)C(O)C(O)C6O)C(O)C(O)C5O)c(OC)c4)OC[C@H]23)ccc1O` (stereo partly drawn) [Compound 1698, 2-[(6-{4-[(6S,1R,5R)-6-(4-hydroxy-3-methoxyphenyl)-3,7-dioxabicyclo[3.3.0]oct-2-yl]-2-methoxyphenoxy}-3,4,5-trihydroxy(2H-3,4,5,6-tetrahydropyran-2-yl))methoxy]-6-methyl-2H-3,4,5,6-tetrahydropyran-3,4,5-triol], the inhibition at 400 µM in data set [1] (setting [6]) is 91.3%; in data set [2] it was 96.1%. Further, the inhibition at 40 µM in data set [3] (setting [7]) worked out at 2.6 ± 4.6%.
In the case of `COc1ccc2c(c1)c(CC(=O)NCCCN1CCCCC1)c(C)n2C(=O)c1ccc(Cl)cc1` [Compound 712, 2-{1-[(4-chlorophenyl)carbonyl]-5-methoxy-2-methylindol-3-yl}-N-(3-piperidylpropyl)acetamide], in data set [2], the inhibition at 400 µM worked out at 94.3%.
For the compound `O=C(NCCCCCCNC(=O)/C(=C\c1ccccc1)NC(=O)c1ccccc1)/C(=C/c1ccccc1)NC(=O)c1ccccc1` [Compound 3, (2E)-N-{6-[(2Z)-3-phenyl-2-(phenylcarbonylamino)prop-2-enoylamino]hexyl}-3-phenyl-2-(phenylcarbonylamino)prop-2-enamide], the inhibition at 400 µM in data set [1] (setting [6]) stood at 41%; in data set [2] it was 41.3%.
Regarding `Cc1sc(N)nc1-c1c[nH]c2ccccc12` [Compound 2307, 4-indol-3-yl-5-methyl-1,3-thiazole-2-ylamine], the inhibition at 400 µM in data set [1] (setting [6]) turned out to be 98.8%; in data set [2] it was 98.6%. In addition, the inhibition at 40 µM in data set [3] (setting [7]) came out at 76.1 ± 3.3%.
In the case of `C1COCCN1.COC(=O)C1=C(C)NC(S)=C(C#N)C1c1cc(OC)c(OC)c(OC)c1` (centres unmarked) [Compound 1016, methyl 5-cyano-2-methyl-6-sulfanyl-4-(3,4,5-trimethoxyphenyl)-1,4-dihydropyridine-3-carboxylate, morpholine], the “Inhibition-% of violacein production” value in data set [1] (primary screening, 400 µM, 24 h, C. violaceum ATCC 31532) is recorded as 34.1%; in data set [2] (primary screening, 400 µM, 24 h, C. violaceum CV026) it was 97.5%.
Consider `O=c1c(O)c(-c2ccc(O)c(O)c2)oc2cc(O)cc(O)c12` [Que, quercetin, reference compound], for which the inhibition at 400 µM in data set [1] (Chromobacterium violaceum) is 99.7%; in data set [2] it was 98.9%. Further, the IC50 (in general, the concentration that gives 50% inhibition) in data set [1] (Chromobacterium violaceum, ATCC31532, read-out: IC50 of violacein production) came to 3.1 µM. The inhibition at 40 µM in data set [3] (setting [8]) was determined as 91.8 ± 2.3%.
As for `O=C(CSc1nc2c(=O)[nH]cnc2n1CC1CCCO1)Nc1ccc(F)c(Cl)c1` (centres unmarked) [Compound 1905, N-(3-chloro-4-fluorophenyl)-2-[6-oxo-9-(oxolan-2-ylmethyl)hydropurin-8-ylthio] acetamide], the inhibition at 400 µM in data set [1] (setting [6]) was found to be 4.7%; in data set [2], 107%.
Take `C=C(CBr)C1Cc2c(ccc3c2OC2COc4cc(OC)c(OC)cc4C2C3=O)O1` (centres unmarked) [Compound 341, 2-[1-(bromomethyl)vinyl]-8,9-dimethoxy-1,2-dihydrochromano[3,4-b]furano[2,3-h]chroman-6-one]: the inhibition at 400 µM in data set [1] (Chromobacterium violaceum) came to 93.4%; in data set [2], 95.2%. The inhibition at 40 µM in data set [3] (setting [8]) was 26.9 ± 7.7%.
Turning to `CCn1cnc2cc(NC(=O)c3cc(OC)c(OC)c(OC)c3)ccc2c1=O` [Compound 1508, N-(3-ethyl-4-oxo(3-hydroquinazolin-7-yl))(3,4,5-trimethoxyphenyl)carboxamide], in data set [2], the inhibition at 400 µM stood at 93.4%.
Regarding `CCOc1ccc(C2NCCc3c2[nH]c2ccccc32)cc1` (centres unmarked) [Compound 2666, 4-ethoxy-1-(1,2,3,4-tetrahydrobeta-carbolinyl)benzene], the inhibition at 400 µM in data set [2] was found to be 90.8%.
Consider `O=C(CCc1cccc(F)c1)NC(CO)C(O)c1ccccc1` (centres unmarked) [Compound 2916, 3-(3-fluorophenyl)-N-[2-hydroxy-1-(hydroxymethyl)-2-phenylethyl]propanamide], for which the inhibition at 400 µM was found to be 19.7% in data set [1] (setting [6]) and 98.3% in data set [2].
Turning to `Cc1cc(C(=O)NC(Cc2ccccc2)C(=O)O)c(C)o1` (centres unmarked) [Compound 1214, 2-[(2,5-dimethyl(3-furyl))carbonylamino]-3-phenylpropanoic acid], the inhibition at 400 µM in data set [2] came to 103%.
As to `COc1ccccc1-c1c(C(F)(F)F)oc2cc(OC(=O)c3ccccc3F)ccc2c1=O` [Compound 2909, 3-(2-methoxyphenyl)-4-oxo-2-(trifluoromethyl)chromen-7-yl 2-fluorobenzoate], the results for the inhibition at 400 µM in data set [1] (setting [6]) and in data set [2] were 12.1% and 99.9%, respectively.
For the compound `CC(=O)c1c(O)c(C)c(O)c2c1OC1=CC(=O)C(C(C)=O)C(=O)C12C` (centres unmarked) [Usnic acid, reference compound], the figures for the “Inhibition-% of cell viability” value in data set [4] and in data set [5] were 90.0 ± 4.7% and 98.5 ± 0.6%, respectively.
On to `CCN(CC)C(=O)c1cc(=O)n(CC(=O)Nc2c(C)cc(C)cc2C)c2ccccc12` [Compound 1406, 2-[4-(N,N-diethylcarbamoyl)-2-oxohydroquinolyl]-N-(2,4,6-trimethylphenyl)acetamide], for which the inhibition at 400 µM was determined as 40% in data set [1] (setting [6]) and 93.3% in data set [2].
